Among the data in doi:10.1101/2020.01.14.906396v1 (biorxiv, 2020) are EC50 values, retold here.

Molecules are shown by their SMILES.

The target of this test is T1, K2P2.1 (TREK-1, KCNK2) (Homo sapiens, UniProt O95069).
T1 sequence (O95069 1-426): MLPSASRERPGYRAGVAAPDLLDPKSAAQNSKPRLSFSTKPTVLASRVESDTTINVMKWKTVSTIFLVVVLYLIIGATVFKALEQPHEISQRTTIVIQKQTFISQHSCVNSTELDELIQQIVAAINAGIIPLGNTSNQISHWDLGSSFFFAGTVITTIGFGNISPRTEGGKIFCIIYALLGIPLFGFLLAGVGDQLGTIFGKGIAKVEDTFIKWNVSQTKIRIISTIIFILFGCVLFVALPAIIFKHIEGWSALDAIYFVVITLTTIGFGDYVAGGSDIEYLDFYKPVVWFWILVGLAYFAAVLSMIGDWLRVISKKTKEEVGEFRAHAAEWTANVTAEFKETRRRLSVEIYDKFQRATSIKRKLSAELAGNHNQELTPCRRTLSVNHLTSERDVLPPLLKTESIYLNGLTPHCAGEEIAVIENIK
Briefly: two-electrode voltage clamp, Xenopus oocytes. In kind it is cell-based.
`CC(C)[C@@H]1CC[C@@H](C)C[C@H]1O` [menthol]: the EC50 is 3800 ± 1000 µM. For `Cc1ccc(C(C)C)c(O)c1` [thymol] the value was 430 ± 240 µM.

Regarding `Cc1ccc(C(C)C)cc1O` [carvacrol, 2-methyl-5-(propan-2-yl) phenol], a half-maximal effect (EC50) was put at 200 ± 60 µM.
